Assay results published in EP1433789A1, “Pyrrolopyrazines and their use as selective apoptosis inducers” (Aponetics AG, priority 2002, dated 2004).

Columns and labels:
Ramos [1] = assay: Hoechst 33342 nuclear staining (Table 3); assay type: cell-based, human; parameters: key: 0 relating to no activity; 1 relating to weak activity comprising less than 50% of the cells; score 2 relating to strong activity comprising more than 50% of the cells; conditions: 24h
Description: (§1) This assay is performed in 96 well tissue culture plates. Appropriate number of cells (adherent cells: 3 - 5*10^3, suspension cells: 8 - 10*10^3) are being seeded out in 80 µl complete medium. Adherent cells are incubated for 24 h for proper spreading out before addition of test compounds while suspension cells are immediately treated with test compounds after seeding out. The test compounds are added in 20 µl complete medium containing max 5% DMSO. The final compound concentrations in the assays are 10 µM, 3 µM,1 µM and 0.3 µM, respectively. After 24 h or 48 h incubation at culture conditions, 10 µl medium containing Hoechst 33342 dye (Sigma B-2261) at 2-5 µg/ml are added to each well. The assay plates are then further incubated for 30 minutes and subsequently analyzed with a standard inverted fluorescence microscope. The readout allows the determination of the fraction of apoptotic nuclei as well as other morphological criteria specific for apoptosis as a function of the treatment. The following scores are used: 0 relating to no activity, 1 relating to weak activity comprising less than 50% of the cells and score 2 relating to strong activity comprising more than 50% of the cells.

HeLa [2] = assay: Hoechst 33342 nuclear staining (Table 3); assay type: cell-based, human; parameters: key: 0 relating to no activity; 1 relating to weak activity comprising less than 50% of the cells; score 2 relating to strong activity comprising more than 50% of the cells
Description: as §1

Jurkat [3] = assay: Hoechst 33342 nuclear staining (Table 3); assay type: cell-based, human; parameters: key: 0 relating to no activity; 1 relating to weak activity comprising less than 50% of the cells; score 2 relating to strong activity comprising more than 50% of the cells
Description: as §1

K562 = assay: Hoechst 33342 nuclear staining (Table 3); assay type: cell-based, human; parameters: key: 0 relating to no activity; 1 relating to weak activity comprising less than 50% of the cells; score 2 relating to strong activity comprising more than 50% of the cells
Description: as §1

A20 [4] = assay: Hoechst 33342 nuclear staining (Table 3); assay type: cell-based, mouse; parameters: key: 0 relating to no activity; 1 relating to weak activity comprising less than 50% of the cells; score 2 relating to strong activity comprising more than 50% of the cells
Description: as §1

Ramos [5] = assay: AnnexinV/7-AAD staining; assay type: cell-based, human; conditions: 10 µM, 24 h treatment
Description: (§2) Adherent cells (1 - 2*10^5) are 24 h prior to compound treatment seeded into 24 well tissue culture plates. Suspension cells are pipetted into P-tubes immediately before treatment. Test compounds are added leading to a final concentrations of 10 µM. After 24 h treatment cells are harvested (in case of adherent cells by trypsinization) and transferred to FACS tubes (BD Biosciences). After centrifugation and removal of the supernatant, 100 µl complete medium containing AnnexinV-GST (10 µg) is added, mixed and incubated at 4°C for 30 minutes. Subsequently, the cells are washed once with medium and incubated with 100 µl anti-GST Alexa 488 (Molecular Probes A-11131) in medium diluted 1:500 for 30 minutes at 4°C. Then, cells are washed once and stained with 1 µg/ml 7-aminoactinomycin D (7-AAD) (Molecular Probes A-1310) in 250 µl medium and analyzed on the FACSCalibur™. AnnexinV is measured in FL1 whereas 7-AAD is measured in FL3. In Table 5 the percentage of positively stained cells after treatment with the respective compounds are indicated. The following scores are used: Score 0 relates to less than 10%, score 1 relates to more than 10% but less than 50% and score 2 relates to more than 50% positivity.

HeLa [6] = assay: AnnexinV/7-AAD staining; assay type: cell-based, human; conditions: 10 µM, 24 h treatment
Description: as §2

Jurkat [7] = assay: AnnexinV/7-AAD staining; assay type: cell-based, human; conditions: 10 µM, 24 h treatment
Description: as §2

A20 [8] = assay: AnnexinV/7-AAD staining; assay type: cell-based, mouse; conditions: A20, 10 µM, 24 h treatment
Description: as §2

CC1(C)Cc2ccccc2-c2c(C=O)c3nc4ccccc4nc3n21 [No. 3, 6,6-Dimethyl-5,6-dihydro-6a,7,12-triaza-dibenzo[a,h]fluorene-13-carbaldehyde]
Hoechst 33342 nuclear staining (Ramos [1]; conc 0.3 (µM)): 0 | Hoechst 33342 nuclear staining (Ramos [1]; conc 1 (µM)): 0 | Hoechst 33342 nuclear staining (Ramos [1]; conc 3 (µM)): 0 | Hoechst 33342 nuclear staining (Ramos [1]; conc 10 (µM)): 0 | Hoechst 33342 nuclear staining (HeLa [2]; 24h, conc 0.3 (µM)): 0 | Hoechst 33342 nuclear staining (HeLa [2]; 24h, conc 1 (µM)): 0 | Hoechst 33342 nuclear staining (HeLa [2]; 24h, conc 3 (µM)): 0 | Hoechst 33342 nuclear staining (HeLa [2]; 24h, conc 10 (µM)): 0 | Hoechst 33342 nuclear staining (HeLa [2]; 48h, conc 0.3 (µM)): 0 | Hoechst 33342 nuclear staining (HeLa [2]; 48h, conc 1 (µM)): 0 | Hoechst 33342 nuclear staining (HeLa [2]; 48h, conc 3 (µM)): 0 | Hoechst 33342 nuclear staining (HeLa [2]; 48h, conc 10 (µM)): 1 (1 relating to weak activity comprising less than 50% of the cells) | Hoechst 33342 nuclear staining (Jurkat [3]; 24h, conc 0.3 (µM)): 0 | Hoechst 33342 nuclear staining (Jurkat [3]; 24h, conc 1 (µM)): 0 | Hoechst 33342 nuclear staining (Jurkat [3]; 24h, conc 3 (µM)): 0 | Hoechst 33342 nuclear staining (Jurkat [3]; 24h, conc 10 (µM)): 0 | Hoechst 33342 nuclear staining (Jurkat [3]; 48h, conc 0.3 (µM)): 0 | Hoechst 33342 nuclear staining (Jurkat [3]; 48h, conc 1 (µM)): 0 | Hoechst 33342 nuclear staining (Jurkat [3]; 48h, conc 3 (µM)): 0 | Hoechst 33342 nuclear staining (Jurkat [3]; 48h, conc 10 (µM)): 2 (score 2 relating to strong activity comprising more than 50% of the cells) | Hoechst 33342 nuclear staining (K562; K562, 24h, conc 0.3 (µM)): 0 | Hoechst 33342 nuclear staining (K562; K562, 24h, conc 1 (µM)): 0 | Hoechst 33342 nuclear staining (K562; K562, 24h, conc 3 (µM)): 0 | Hoechst 33342 nuclear staining (K562; K562, 24h, conc 10 (µM)): 0 | Hoechst 33342 nuclear staining (K562; K562, 48h, conc 0.3 (µM)): 0 | Hoechst 33342 nuclear staining (K562; K562, 48h, conc 1 (µM)): 0 | Hoechst 33342 nuclear staining (K562; K562, 48h, conc 3 (µM)): 1 (1 relating to weak activity comprising less than 50% of the cells) | Hoechst 33342 nuclear staining (K562; K562, 48h, conc 10 (µM)): 1 (1 relating to weak activity comprising less than 50% of the cells) | Hoechst 33342 nuclear staining (A20 [4]; A20, 24h, conc 0.3 (µM)): 0 | Hoechst 33342 nuclear staining (A20 [4]; A20, 24h, conc 1 (µM)): 0 | Hoechst 33342 nuclear staining (A20 [4]; A20, 24h, conc 3 (µM)): 0 | Hoechst 33342 nuclear staining (A20 [4]; A20, 24h, conc 10 (µM)): 0 | Hoechst 33342 nuclear staining (A20 [4]; A20, 48h, conc 0.3 (µM)): 0 | Hoechst 33342 nuclear staining (A20 [4]; A20, 48h, conc 1 (µM)): 0 | Hoechst 33342 nuclear staining (A20 [4]; A20, 48h, conc 3 (µM)): 0 | Hoechst 33342 nuclear staining (A20 [4]; A20, 48h, conc 10 (µM)): 0 | percentage of positively stained cells (AnnexinV/7-AAD staining) (Ramos [5]): 2 (score 2 relates to more than 50% positivity) | percentage of positively stained cells (AnnexinV/7-AAD staining) (HeLa [6]): 1 (score 1 relates to more than 10% but less than 50%) | percentage of positively stained cells (AnnexinV/7-AAD staining) (Jurkat [7]): 2 (score 2 relates to more than 50% positivity) | percentage of positively stained cells (AnnexinV/7-AAD staining) (A20 [8]): 1 (score 1 relates to more than 10% but less than 50%)

[2-(3-Methoxy-6,6-dimethyl-5,6-dihydro-6a,7,12-triaza-dibenzofluoren-2-yloxy)-ethyl]-dimethyl-amine [No. 6]
Hoechst 33342 nuclear staining (Ramos [1]; conc 0.3 (µM)): 0 | Hoechst 33342 nuclear staining (Ramos [1]; conc 1 (µM)): 0 | Hoechst 33342 nuclear staining (Ramos [1]; conc 3 (µM)): 0 | Hoechst 33342 nuclear staining (Ramos [1]; conc 10 (µM)): 2 (score 2 relating to strong activity comprising more than 50% of the cells) | Hoechst 33342 nuclear staining (HeLa [2]; 24h, conc 0.3 (µM)): 0 | Hoechst 33342 nuclear staining (HeLa [2]; 24h, conc 1 (µM)): 0 | Hoechst 33342 nuclear staining (HeLa [2]; 24h, conc 3 (µM)): 0 | Hoechst 33342 nuclear staining (HeLa [2]; 24h, conc 10 (µM)): 2 (score 2 relating to strong activity comprising more than 50% of the cells) | Hoechst 33342 nuclear staining (HeLa [2]; 48h, conc 0.3 (µM)): 0 | Hoechst 33342 nuclear staining (HeLa [2]; 48h, conc 1 (µM)): 0 | Hoechst 33342 nuclear staining (HeLa [2]; 48h, conc 3 (µM)): 0 | Hoechst 33342 nuclear staining (HeLa [2]; 48h, conc 10 (µM)): 2 (score 2 relating to strong activity comprising more than 50% of the cells) | Hoechst 33342 nuclear staining (Jurkat [3]; 24h, conc 0.3 (µM)): 0 | Hoechst 33342 nuclear staining (Jurkat [3]; 24h, conc 1 (µM)): 0 | Hoechst 33342 nuclear staining (Jurkat [3]; 24h, conc 3 (µM)): 0 | Hoechst 33342 nuclear staining (Jurkat [3]; 24h, conc 10 (µM)): 2 (score 2 relating to strong activity comprising more than 50% of the cells) | Hoechst 33342 nuclear staining (Jurkat [3]; 48h, conc 0.3 (µM)): 0 | Hoechst 33342 nuclear staining (Jurkat [3]; 48h, conc 1 (µM)): 2 (score 2 relating to strong activity comprising more than 50% of the cells) | Hoechst 33342 nuclear staining (Jurkat [3]; 48h, conc 3 (µM)): 2 (score 2 relating to strong activity comprising more than 50% of the cells) | Hoechst 33342 nuclear staining (Jurkat [3]; 48h, conc 10 (µM)): 2 (score 2 relating to strong activity comprising more than 50% of the cells) | Hoechst 33342 nuclear staining (K562; K562, 24h, conc 0.3 (µM)): 0 | Hoechst 33342 nuclear staining (K562; K562, 24h, conc 1 (µM)): 0 | Hoechst 33342 nuclear staining (K562; K562, 24h, conc 3 (µM)): 0 | Hoechst 33342 nuclear staining (K562; K562, 24h, conc 10 (µM)): 2 (score 2 relating to strong activity comprising more than 50% of the cells) | Hoechst 33342 nuclear staining (K562; K562, 48h, conc 0.3 (µM)): 0 | Hoechst 33342 nuclear staining (K562; K562, 48h, conc 1 (µM)): 0 | Hoechst 33342 nuclear staining (K562; K562, 48h, conc 3 (µM)): 0 | Hoechst 33342 nuclear staining (K562; K562, 48h, conc 10 (µM)): 2 (score 2 relating to strong activity comprising more than 50% of the cells) | Hoechst 33342 nuclear staining (A20 [4]; A20, 24h, conc 0.3 (µM)): 0 | Hoechst 33342 nuclear staining (A20 [4]; A20, 24h, conc 1 (µM)): 0 | Hoechst 33342 nuclear staining (A20 [4]; A20, 24h, conc 3 (µM)): 0 | Hoechst 33342 nuclear staining (A20 [4]; A20, 24h, conc 10 (µM)): 0 | Hoechst 33342 nuclear staining (A20 [4]; A20, 48h, conc 0.3 (µM)): 0 | Hoechst 33342 nuclear staining (A20 [4]; A20, 48h, conc 1 (µM)): 0 | Hoechst 33342 nuclear staining (A20 [4]; A20, 48h, conc 3 (µM)): 0 | Hoechst 33342 nuclear staining (A20 [4]; A20, 48h, conc 10 (µM)): 2 (score 2 relating to strong activity comprising more than 50% of the cells) | percentage of positively stained cells (AnnexinV/7-AAD staining) (Ramos [5]): 2 (score 2 relates to more than 50% positivity) | percentage of positively stained cells (AnnexinV/7-AAD staining) (HeLa [6]): 2 (score 2 relates to more than 50% positivity) | percentage of positively stained cells (AnnexinV/7-AAD staining) (Jurkat [7]): 2 (score 2 relates to more than 50% positivity) | percentage of positively stained cells (AnnexinV/7-AAD staining) (A20 [8]): 2 (score 2 relates to more than 50% positivity)
